Test results as given in PubChem BioAssay (NCI).
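GI50 is the concentration that inhibits growth by half. TGI is the concentration that stops growth completely.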

How the values were obtained:
Test in all cases: NCI tumour cell line growth inhibition, 384-well format
786-0 renal = test system: 786-0 renal
A549 NSCLC = test system: A549 NSCLC
ACHN renal = test system: ACHN renal
BT-549 breast = test system: BT-549 breast
CCRF-CEM leukemia = test system: CCRF-CEM leukemia
COLO 205 colon = test system: COLO 205 colon
DU-145 prostate = test system: DU-145 prostate
HCT-15 colon = test system: HCT-15 colon
HOP-62 NSCLC = test system: HOP-62 NSCLC
HOP-92 NSCLC = test system: HOP-92 NSCLC
HS 578T breast = test system: HS 578T breast
HT29 colon = test system: HT29 colon
IGROV1 ovarian = test system: IGROV1 ovarian
K-562 leukemia = test system: K-562 leukemia
KM12 colon = test system: KM12 colon
LOX IMVI melanoma = test system: LOX IMVI melanoma
M14 melanoma = test system: M14 melanoma
MALME-3M melanoma = test system: MALME-3M melanoma
MCF7 breast = test system: MCF7 breast
MDA-MB-231 breast = test system: MDA-MB-231 breast
MDA-MB-435 melanoma = test system: MDA-MB-435 melanoma
MDA-MB-468 breast = test system: MDA-MB-468 breast
MOLT-4 leukemia = test system: MOLT-4 leukemia
NCI-H226 lung = test system: NCI-H226 lung
NCI-H23 lung = test system: NCI-H23 lung
NCI-H322M lung = test system: NCI-H322M lung
NCI-H460 NSCLC = test system: NCI-H460 NSCLC
NCI-H522 lung = test system: NCI-H522 lung
NCI/ADR-RES ovarian = test system: NCI/ADR-RES ovarian
OVCAR-3 ovarian = test system: OVCAR-3 ovarian
OVCAR-4 ovarian = test system: OVCAR-4 ovarian
OVCAR-5 ovarian = test system: OVCAR-5 ovarian
OVCAR-8 ovarian = test system: OVCAR-8 ovarian
SF-295 CNS = test system: SF-295 CNS
SF-539 CNS = test system: SF-539 CNS
SK-MEL-2 melanoma = test system: SK-MEL-2 melanoma
SK-MEL-28 melanoma = test system: SK-MEL-28 melanoma
SK-MEL-5 melanoma = test system: SK-MEL-5 melanoma
SK-OV-3 ovarian = test system: SK-OV-3 ovarian
SN12C renal = test system: SN12C renal
SNB-19 CNS = test system: SNB-19 CNS
SNB-75 CNS = test system: SNB-75 CNS
SR leukemia = test system: SR leukemia
SW-620 colon = test system: SW-620 colon
T-47D breast = test system: T-47D breast
TK-10 renal = test system: TK-10 renal
U251 glioblastoma = test system: U251 glioblastoma

CNC(=O)c1ccccc1Nc1nc(Nc2ccc3c(c2OC)CCC[C@H](N2CCN(CCO)CC2)C3)ncc1Cl
GI50 ([…]-0 renal): 1160 nM | TGI (786-0 renal): 2410 nM | GI50 (A549 NSCLC): 1080 nM | TGI (A549 NSCLC): 2330 nM | GI50 (ACHN renal): 584 nM | TGI (ACHN renal): 2120 nM | GI50 (BT-549 breast): 1970 nM | TGI (BT-549 breast): 5.2 µM | GI50 (CCRF-CEM leukemia): 1860 nM | TGI (CCRF-CEM leukemia): 3.32 µM | GI50 (COLO 205 colon): 283 nM | TGI (COLO 205 colon): 960 nM | GI50 (DU-145 prostate): 728 nM | TGI (DU-145 prostate): 2600 nM | GI50 (HCT-15 colon): 533 nM | TGI (HCT-15 colon): 1730 nM | GI50 (HOP-62 NSCLC): 1430 nM | TGI (HOP-62 NSCLC): 3.17 µM | GI50 (HOP-92 NSCLC): 985 nM | TGI (HOP-92 NSCLC): 2250 nM | GI50 (HS 578T breast): 726 nM | TGI (HS 578T breast): 2030 nM | GI50 (HT29 colon): 303 nM | TGI (HT29 colon): 1350 nM | GI50 (IGROV1 ovarian): 800 nM | TGI (IGROV1 ovarian): 2760 nM | GI50 (K-562 leukemia): 1430 nM | TGI (K-562 leukemia): 2820 nM | GI50 (KM12 colon): 955 nM | TGI (KM12 colon): 2630 nM | GI50 (LOX IMVI melanoma): 655 nM | TGI (LOX IMVI melanoma): 1970 nM | GI50 (M14 melanoma): 632 nM | TGI (M14 melanoma): 1850 nM | GI50 (MALME-3M melanoma): 414 nM | TGI (MALME-3M melanoma): 1450 nM | GI50 (MCF7 breast): 244 nM | TGI (MCF7 breast): 1520 nM | GI50 (MDA-MB-231 breast): 974 nM | TGI (MDA-MB-231 breast): 2280 nM | GI50 (MDA-MB-435 melanoma): 833 nM | TGI (MDA-MB-435 melanoma): 3.18 µM | GI50 (MDA-MB-468 breast): 384 nM | TGI (MDA-MB-468 breast): 1660 nM | GI50 (MOLT-4 leukemia): 1280 nM | TGI (MOLT-4 leukemia): 2560 nM | GI50 (NCI-H226 lung): 686 nM | TGI (NCI-H226 lung): 2700 nM | GI50 (NCI-H23 lung): 673 nM | TGI (NCI-H23 lung): 2320 nM | GI50 (NCI-H322M lung): 806 nM | TGI (NCI-H322M lung): 2330 nM | GI50 (NCI-H460 NSCLC): 1140 nM | TGI (NCI-H460 NSCLC): 2480 nM | GI50 (NCI-H522 lung): 862 nM | TGI (NCI-H522 lung): 2200 nM | GI50 (NCI/ADR-RES ovarian): 2120 nM | TGI (NCI/ADR-RES ovarian): 4.37 µM | GI50 (OVCAR-3 ovarian): 1180 nM | TGI (OVCAR-3 ovarian): 2770 nM | GI50 (OVCAR-4 ovarian): 1080 nM | TGI (OVCAR-4 ovarian): 2790 nM | GI50 (OVCAR-5 ovarian): 925 nM | TGI (OVCAR-5 ovarian): 3.48 µM | GI50 (OVCAR-8 ovarian): 1500 nM | TGI (OVCAR-8 ovarian): 3.18 µM | GI50 (SF-295 CNS): 1710 nM | TGI (SF-295 CNS): 3.11 µM | GI50 (SF-539 CNS): 1500 nM | TGI (SF-539 CNS): 2930 nM | GI50 (SK-MEL-2 melanoma): 304 nM | TGI (SK-MEL-2 melanoma): 1050 nM | GI50 (SK-MEL-28 melanoma): 1390 nM | TGI (SK-MEL-28 melanoma): 2700 nM | GI50 (SK-MEL-5 melanoma): 879 nM | TGI (SK-MEL-5 melanoma): 2150 nM | GI50 (SK-OV-3 ovarian): 740 nM | TGI (SK-OV-3 ovarian): 2300 nM | GI50 (SN12C renal): 1400 nM | TGI (SN12C renal): 4.34 µM | GI50 (SNB-19 CNS): 2200 nM | TGI (SNB-19 CNS): 5.9 µM | GI50 (SNB-75 CNS): 1430 nM | TGI (SNB-75 CNS): 3.22 µM | GI50 (SR leukemia): 18.6 nM | TGI (SR leukemia): 34.7 nM | GI50 (SW-620 colon): 727 nM | TGI (SW-620 colon): 2100 nM | GI50 (T-47D breast): 1280 nM | TGI (T-47D breast): 2710 nM | GI50 (TK-10 renal): 783 nM | TGI (TK-10 renal): 2480 nM | GI50 (U251 glioblastoma): 1430 nM | TGI (U251 glioblastoma): 2830 nM
